Laboratory results from PubChem BioAssay AID1963839 (Molecular Pharmacology Branch, DTP, NCI, 2024).

Tested on: 817829-284-R-J1-PDC complex spheroid viability
Assay: Anticancer human tumor 817829-284-R-J1-PDC patient-derived colon adenocarcinoma cell line growth inhibition [POLQ]
Details: for IC50: curve of first compound; for viability, T/C: stronger effect = lower value
Method in brief: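 Complex spheroid viability model combining PDC tumour cells with endothelial (HUVEC) and MSC stromal cells. Novobiocin, ART-558 or RP6685 were tested singly and in combination with standard and investigational anticancer drugs. Each was titrated in half-log steps from near clinical Cmax, or from 10 microM where Cmax was unknown.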

[1] = second compound 0.0316 µM, first compound 0.0316 µM
[2] = second compound 0.0316 µM, first compound 0.1 µM
[3] = second compound 0.0316 µM, first compound 0.316 µM
[4] = second compound 0.0316 µM, first compound 1 µM
[5] = second compound 0.0316 µM, first compound 3.16 µM
[6] = second compound 0.0316 µM, first compound 10 µM
[7] = second compound 0.1 µM, first compound 0.0316 µM
[8] = second compound 0.1 µM, first compound 0.1 µM
[9] = second compound 0.1 µM, first compound 0.316 µM
[10] = second compound 0.1 µM, first compound 1 µM
[11] = second compound 0.1 µM, first compound 3.16 µM
[12] = second compound 0.1 µM, first compound 10 µM
[13] = second compound 0.316 µM, first compound 0.0316 µM
[14] = second compound 0.316 µM, first compound 0.1 µM
[15] = second compound 0.316 µM, first compound 0.316 µM
[16] = second compound 0.316 µM, first compound 1 µM
[17] = second compound 0.316 µM, first compound 3.16 µM
[18] = second compound 0.316 µM, first compound 10 µM
[19] = second compound 1 µM, first compound 0.0316 µM
[20] = second compound 1 µM, first compound 0.1 µM
[21] = second compound 1 µM, first compound 0.316 µM
[22] = second compound 1 µM, first compound 1 µM
[23] = second compound 1 µM, first compound 3.16 µM
[24] = second compound 1 µM, first compound 10 µM
[25] = second compound 3.16 µM, first compound 0.0316 µM
[26] = second compound 3.16 µM, first compound 0.1 µM
[27] = second compound 3.16 µM, first compound 0.316 µM
[28] = second compound 3.16 µM, first compound 1 µM
[29] = second compound 3.16 µM, first compound 3.16 µM
[30] = second compound 3.16 µM, first compound 10 µM
[31] = second compound 10 µM, first compound 0.0316 µM
[32] = second compound 10 µM, first compound 0.1 µM
[33] = second compound 10 µM, first compound 0.316 µM
[34] = second compound 10 µM, first compound 1 µM
[35] = second compound 10 µM, first compound 3.16 µM
[36] = second compound 10 µM, first compound 10 µM
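Further: spheroids exposed to compounds for 7 days.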
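Wherever viability, T/C is given: 100% = DMSO vehicle-treated spheroids.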

Work on COc1cc(C2c3cc4c(cc3C(OC3OC5COC(C)OC5C(O)C3O)C3COC(=O)C23)OCO4)cc(OC)c1O (stereo unspecified) + Cc1cccc(N(C)C(=O)C2C(O)CCN2c2nc(C)cc(C(F)(F)F)c2C#N)c1 yielded an IC50 (second compound 0.0316 µM) of 55.1 nM, an IC50 (second compound 0.1 µM) of 56.6 nM and an IC50 (second compound 0.316 µM) of 72.1 nM. For the same molecule, the IC50 (second compound 1 µM) was 48.6 nM, the IC50 (second compound 3.16 µM) was 47.5 nM and the IC50 (second compound 10 µM) was 45 nM. The viability, T/C [1] was 68.8%, the viability, T/C [2] was 29.6% and the viability, T/C [3] was 15.7%. It also gave a viability, T/C [4] of 17.2%, a viability, T/C [5] of 11.5% and a viability, T/C [6] of 5.61%. For the same molecule, the viability, T/C [7] was 65.9%, the viability, T/C [8] was 34.4% and the viability, T/C [9] was 11.6%. For the same molecule, the viability, T/C [10] was 20.5%, the viability, T/C [11] was 13.7% and the viability, T/C [12] was 6.16%. It also gave a viability, T/C [13] of 71.5%, a viability, T/C [14] of 41.7% and a viability, T/C [15] of 15.8%. The viability, T/C [16] was 16.7%, the viability, T/C [17] was 12.2% and the viability, T/C [18] was 7.12%. For the same molecule, the viability, T/C [19] was 63.2%, the viability, T/C [20] was 26.5% and the viability, T/C [21] was 18.9%. The viability, T/C [22] was 19.1%, the viability, T/C [23] was 14.4% and the viability, T/C [24] was 6.32%. It also gave a viability, T/C [25] of 57.4%, a viability, T/C [26] of 38.2% and a viability, T/C [27] of 18%. It also gave a viability, T/C [28] of 15.7%, a viability, T/C [29] of 12.5% and a viability, T/C [30] of 6.13%. The viability, T/C [31] was 59.6%, the viability, T/C [32] was 26.6% and the viability, T/C [33] was 22.6%. It also gave a viability, T/C [34] of 17.6%, a viability, T/C [35] of 11.6% and a viability, T/C [36] of 5.64%.

Work on CCc1c2c(nc3ccc(O)cc13)-c1cc3c(c(=O)n1C2)COC(=O)[C@]3(O)CC + Nc1ccc(C#CCN(C(=O)Cc2ncc(C(F)(F)F)cc2C(F)(F)F)c2ccc(F)cc2)nn1 yielded an IC50 (second compound 0.0316 µM) of less than 3.16 nM, an IC50 (second compound 0.1 µM) of less than 3.16 nM and an IC50 (second compound 0.316 µM) of less than 3.16 nM. For the same molecule, the IC50 (second compound 1 µM) was less than 3.16 nM, the IC50 (second compound 3.16 µM) was less than 3.16 nM and the IC50 (second compound 10 µM) was less than 3.16 nM. It also gave a viability, T/C (second compound 0.0316 µM, first compound 0.00316 µM) of 22.5%, a viability, T/C (second compound 0.0316 µM, first compound 0.01 µM) of 14.5% and a viability, T/C [1] of 14.1%. It also gave a viability, T/C [2] of 9.79%, a viability, T/C [3] of 5.25% and a viability, T/C [4] of 3.01%. The viability, T/C (second compound 0.1 µM, first compound 0.00316 µM) was 20.9%, the viability, T/C (second compound 0.1 µM, first compound 0.01 µM) was 17.8% and the viability, T/C [7] was 12.8%. It also gave a viability, T/C [8] of 8.52%, a viability, T/C [9] of 4.76% and a viability, T/C [10] of 2.98%. It also gave a viability, T/C (second compound 0.316 µM, first compound 0.00316 µM) of 18.2%, a viability, T/C (second compound 0.316 µM, first compound 0.01 µM) of 19.1% and a viability, T/C [13] of 11.2%. It also gave a viability, T/C [14] of 7.52%, a viability, T/C [15] of 4.9% and a viability, T/C [16] of 2.95%. For the same molecule, the viability, T/C (second compound 1 µM, first compound 0.00316 µM) was 22.2%, the viability, T/C (second compound 1 µM, first compound 0.01 µM) was 21.4% and the viability, T/C [19] was 14.4%. The viability, T/C [20] was 7.16%, the viability, T/C [21] was 4.75% and the viability, T/C [22] was 2.54%. For the same molecule, the viability, T/C (second compound 3.16 µM, first compound 0.00316 µM) was 15.1%, the viability, T/C (second compound 3.16 µM, first compound 0.01 µM) was 16.2% and the viability, T/C [25] was 13%. The viability, T/C [26] was 7.06%, the viability, T/C [27] was 4.44% and the viability, T/C [28] was 2.95%. It also gave a viability, T/C (second compound 10 µM, first compound 0.00316 µM) of 21.7%, a viability, T/C (second compound 10 µM, first compound 0.01 µM) of 17% and a viability, T/C [31] of 10%. It also gave a viability, T/C [32] of 7.06%, a viability, T/C [33] of 3.78% and a viability, T/C [34] of 2.98%.

O=c1[nH]cc(F)c(=O)[nH]1 + COC1C(OC(N)=O)C(O)C(Oc2ccc3c(O)c(NC(=O)c4ccc(O)c(CC=C(C)C)c4)c(=O)oc3c2C)OC1(C)C was tested, and the IC50 (second compound 0.0316 µM) was 2400 nM, the IC50 (second compound 0.1 µM) was 8960 nM and the IC50 (second compound 0.316 µM) was 3420 nM. It also gave an IC50 (second compound 1 µM) of 2920 nM, an IC50 (second compound 3.16 µM) of 2130 nM and an IC50 (second compound 10 µM) of 8930 nM. For the same molecule, the viability, T/C [1] was 97.6%, the viability, T/C [2] was 144% and the viability, T/C [3] was 102%. For the same molecule, the viability, T/C [4] was 68.8%, the viability, T/C [5] was 42.6% and the viability, T/C [6] was 43.1%. The viability, T/C [7] was 90.7%, the viability, T/C [8] was 94% and the viability, T/C [9] was 92.5%. For the same molecule, the viability, T/C [10] was 77.6%, the viability, T/C [11] was 50.2% and the viability, T/C [12] was 50%. It also gave a viability, T/C [13] of 80%, a viability, T/C [14] of 84.2% and a viability, T/C [15] of 70%. It also gave a viability, T/C [16] of 70.2%, a viability, T/C [17] of 51.1% and a viability, T/C [18] of 26.6%. For the same molecule, the viability, T/C [19] was 98.3%, the viability, T/C [20] was 86.8% and the viability, T/C [21] was 95.1%. For the same molecule, the viability, T/C [22] was 86.5%, the viability, T/C [23] was 47.2% and the viability, T/C [24] was 47.3%. It also gave a viability, T/C [25] of 128%, a viability, T/C [26] of 114% and a viability, T/C [27] of 108%. It also gave a viability, T/C [28] of 57.8%, a viability, T/C [29] of 50.4% and a viability, T/C [30] of 39.9%. The viability, T/C [31] was 107%, the viability, T/C [32] was 101% and the viability, T/C [33] was 77.9%. For the same molecule, the viability, T/C [34] was 84.3%, the viability, T/C [35] was 62.3% and the viability, T/C [36] was 47.4%.
